From PMC12481569, “Novltex: A New Class of Antibiotics with Potent Activity against Multidrug-Resistant Bacterial Pathogens–Design, Synthesis, and Biological Evaluation” (Journal of Medicinal Chemistry, 2025)
Converted amounts (≈) assume the structure as drawn. “And” between values parts separate entries of the source, which are not always exact repeats. Equal values may be shown once. Read-outs that look alike come from different tables or passages of the source. Positions of bridges follow the written chain, without caps; N, C: chain ends. Non-standard residues stand in square brackets, D forms with d. Residues, ends and D or L forms follow the SMILES beside them.

Experiments:
Test in all cases: microbe, parasite or virus in culture
MRSA ATCC 33591 = format: cell-based, Staphylococcus aureus; conditions: 24 h, two independent duplicates
Procedure: (§1) MICs were performed as previously reported 4. For MIC testing all peptides were dissolved in DMSO.
Bacterial cultures were grown overnight on Mueller-Hinton Agar (MHA) plates and adjusted to a final inoculum of 10^5 – 10^6 CFU/mL. 100 µl of ino culum in Meuller -Hinton broth (MHB) was mixed with equal volume of peptides (dissolved in MHB) at 2x their concentration in a 96 well plate . For daptomycin MIC determination, the same protocol was followed with the addition of 50 mg/L calcium chloride to the medium. MIC values were determined in the media contain ing polysorbate 80 (0.002%, v/v) to prevent non -specific adsorption of the peptides to plastic surfaces. The final peptides concentrations ranged from 0.0625 – 32 µg/mL. The 96 well plates were then incubated at 37 °C for 24 h. All the experiments were performed in two independent duplicates and the MIC was determined as the lowest concentration in which no visible growth was observed. […]

[1] = tested on: Multidrug-Resistant (MDR) E. faecium; conditions: Enterococcus faecium
Procedure: (§2) We further evaluated analogue 12 against multidrug-resistant (MDR) strains of S. aureus (acquired from the NARSA collection) and MDR E. faecium (acquired from International Health Management Associates, IHMA, Europe Sarl), comparing its activity to various classes of clinically used antibiotics (Table ).
as §1
(§3) Bacterial cultures were grown overnight on Mueller-Hinton Agar (MHA) plates and adjusted to a final inoculum of 10^5 – 10^6 CFU/mL. 100 µl of ino culum in Meuller -Hinton broth (MHB) was mixed with equal volume of peptides (dissolved in MHB) at 2x their concentration in a 96 well plate . For daptomycin MIC determination, the same protocol was followed with the addition of 50 mg/L calcium chloride to the medium. MIC values were determined in the media contain ing polysorbate 80 (0.002%, v/v) to prevent non -specific adsorption of the peptides to plastic surfaces. The final peptides concentrations ranged from 0.0625 – 32 µg/mL. The 96 well plates were then incubated at 37 °C for 24 h. All the experiments were performed in two independent duplicates and the MIC was determined as the lowest concentration in which no visible growth was observed.
(§4) Antibiotics MIC break points ( µg/mL)
(§5) Table. S4: Susceptibility cut-off values (MIC breakpoints) for various clinical antibiotics. […]

[2] = tested on: Multidrug-Resistant (MDR) S. aureus; conditions: for MIC: Staphylococcus aureus, 24 h; for susceptibility/resistance of the S. aureus isolates based on the MIC breakpoints: four MDR S. aureus isolates
Procedure: as §2, §1, §3, §4, §5

[3] = Table 2, MHB with 0.002% polysorbate 80, 37 °C
[4] = broth dilution in MHB with 0.002% v/v polysorbate 80, inoculum 10^5-10^6 CFU/mL, 37 °C, no visible growth, Table 1
[5] = 24 h, read-out: MIC, Enterococcus faecium 1563254
[6] = 24 h, read-out: MIC, Enterococcus faecium 1581582
[7] = 24 h, read-out: MIC, Enterococcus faecium 1766686
[8] = read-out: MIC, Staphylococcus aureus NR 45914
[9] = read-out: MIC, Staphylococcus aureus NR 45926
[10] = read-out: MIC, Staphylococcus aureus NR 45930
[11] = read-out: MIC, Staphylococcus aureus NR 46062

Compound: CC(C)C[C@@H]1NC(=O)[C@H](C)NC(=O)[C@H](NC(=O)[C@H](CO)NC(=O)[C@@H](CCCCN)NC(=O)[C@@H](Cc2ccc(O)cc2)NC(=O)[C@@H](N)Cc2ccccc2)[C@H](C)OC(=O)[C@H](CC(C)C)NC1=O [analogue 15, Leu2Tyr–Novltex] (H-F[dY][dK]S[dT]ALL; ester 5-C)
- MIC against MRSA ATCC 33591 (MRSA ATCC 33591; [3]): >32 µg/mL

Compound: CC(C)C[C@@H]1NC(=O)[C@H](C)NC(=O)[C@H](NC(=O)[C@H](CO)NC(=O)[C@@H](CCCCN)NC(=O)[C@@H](Cc2c[nH]c3ccccc23)NC(=O)[C@@H](N)Cc2ccccc2)[C@H](C)OC(=O)[C@H](CC(C)C)NC1=O [analogue 13, Leu2Trp–Novltex] (H-F[dW][dK]S[dT]ALL; ester 5-C)
- MIC against MRSA ATCC 33591 (MRSA ATCC 33591; [3]): > 32 µg/mL

Compound: CC(C)C[C@H](NC(=O)[C@H](N)Cc1ccccc1)C(=O)N[C@@H](CCCCN)C(=O)N[C@H](CO)C(=O)N[C@H]1C(=O)N[C@@H](C)C(=O)N[C@@H](CC(C)C)C(=O)N[C@@H](CC(C)C)C(=O)O[C@H]1C [analogue 3]
- MIC against MRSA ATCC 33591 (MRSA ATCC 33591; [4]): 32 µg/mL (≈ 36.6 µM)

Compound: CC(=O)NC[C@H]1CN(c2ccc(N3CCOCC3)c(F)c2)C(=O)O1 [Linezolid]
- MIC [1, 5]: 16 µg/mL (≈ 47.4 µM)
- MIC [1, 6]: 1 µg/mL (≈ 2.96 µM)
- MIC [1, 7]: 1 µg/mL (≈ 2.96 µM)
- MIC ([1]; read-out: MIC, two E. faecium clinical isolates that remained susceptible to linezolid): 1 µg/mL (≈ 2.96 µM)
- MIC [2, 8]: 2 µg/mL (≈ 5.93 µM)
- MIC [2, 9]: 32 µg/mL (≈ 94.9 µM)
- MIC [2, 10]: 4 µg/mL (≈ 11.9 µM)
- MIC [2, 11]: 16 µg/mL (≈ 47.4 µM)
- susceptibility/resistance of the S. aureus isolates based on the MIC breakpoints [2]: 3 out of 4 isolates showed resistance

Compound: C[C@H]1COc2c(N3CCN(C)CC3)c(F)cc3c(=O)c(C(=O)O)cn1c23 [Levofloxacin]
- MIC [1, 5]: 32 µg/mL (≈ 88.6 µM)
- MIC [1, 6]: 32 µg/mL (≈ 88.6 µM)
- MIC [1, 7]: 32 µg/mL (≈ 88.6 µM)
- MIC [2, 8]: 1 µg/mL (≈ 2.77 µM)
- MIC [2, 9]: 4 µg/mL (≈ 11.1 µM)
- MIC [2, 10]: > 32 µg/mL
- MIC [2, 11]: 32 µg/mL (≈ 88.6 µM)
- susceptibility/resistance of the S. aureus isolates based on the MIC breakpoints [2]: 3 out of 4 isolates showed resistance

Compound: CC(C)C[C@@H]1NC(=O)[C@H](C)NC(=O)[C@H](NC(=O)[C@H](CO)NC(=O)[C@H](CCCCN)NC(=O)[C@@H](CC(C)C)NC(=O)[C@H](N)Cc2ccccc2)[C@H](C)OC(=O)[C@H](CC(C)C)NC1=O [analogue 7]
- MIC against MRSA ATCC 33591 (MRSA ATCC 33591; [4]): > 32 µg/mL and 32 µg/mL

Compound: CC1(C)S[C@@H]2[C@H](NC(=O)[C@H](N)c3ccccc3)C(=O)N2[C@H]1C(=O)O [Ampicillin]
- MIC [1, 5]: > 32 µg/mL
- MIC [1, 6]: > 32 µg/mL
- MIC [1, 7]: > 32 µg/mL
- MIC [2, 8]: 2 µg/mL (≈ 5.72 µM)
- MIC [2, 9]: 32 µg/mL (≈ 91.6 µM)
- MIC [2, 10]: 8 µg/mL (≈ 22.9 µM)
- MIC [2, 11]: 8 µg/mL (≈ 22.9 µM)
- susceptibility/resistance of the S. aureus isolates based on the MIC breakpoints [2]: 3 out of 4 isolates showed resistance

Compound: CC(C)C[C@@H]1NC(=O)[C@H](C)NC(=O)[C@H](NC(=O)[C@@H](CO)NC(=O)[C@@H](CCCCN)NC(=O)[C@@H](CC(C)C)NC(=O)[C@H](N)Cc2ccccc2)[C@H](C)OC(=O)[C@H](CC(C)C)NC1=O [analogue 9]
- MIC against MRSA ATCC 33591 (MRSA ATCC 33591; [4]): 16 µg/mL (≈ 18.3 µM)

Compound: CO/N=C(\C(=O)N[C@@H]1C(=O)N2C(C(=O)O)=C(COC(C)=O)CS[C@H]12)c1csc(N)n1 [Cefotaxime]
- MIC [1, 5]: > 32 µg/mL
- MIC [1, 6]: > 32 µg/mL
- MIC [1, 7]: > 32 µg/mL
- MIC [2, 8]: 4 µg/mL (≈ 8.78 µM)
- MIC [2, 9]: 16 µg/mL (≈ 35.1 µM)
- MIC [2, 10]: 8 µg/mL (≈ 17.6 µM)
- MIC [2, 11]: 16 µg/mL (≈ 35.1 µM)

Compound: CC(C)C[C@@H]1NC(=O)[C@H](C)NC(=O)[C@H](NC(=O)[C@@H](CO)NC(=O)[C@H](CCCCN)NC(=O)[C@@H](CC(C)C)NC(=O)[C@@H](N)Cc2ccccc2)[C@H](C)OC(=O)[C@H](CC(C)C)NC1=O [analogue 6]
- MIC against MRSA ATCC 33591 (MRSA ATCC 33591; [4]): > 32 µg/mL
